Experimental findings from ChEMBL document CHEMBL1151696 (Bioorg Med Chem, 2008) are described below.

Calls of active or inactive are those of the source. No cut-off for these calls is given here.

The test system of this assay is Vaccinia virus. Format: functional, organism-based. Conditions: Orthopoxvirus vaccinia.
On to `CC12CC3CC1(C)CC3(NCc1ccccc1)C2`, for which the outcome was inactive.
The result for `CN(Cc1ccccc1)C12CC3(C)CC1CC3(C)C2` reads “inactive”; that for `CNC12CC3(C)CC1CC3(C)C2`, “inactive”; that for `CC(N)C12CC3(C)CC1CC3(C)C2` (stereo unspecified), “inactive”.
For the compound `COc1ccccc1CNC12CC3CC(CC1C3)C2`, the result was inactive.
Then `Fc1ccc(CNC23CC4CC(CC2C4)C3)cc1`, with “inactive”.
The result for `CN(C)C12CC3(C)CC1CC3(C)C2` reads “inactive”; that for `c1csc(CNC23CC4CC(CC2C4)C3)c1`, “inactive”.
With `CC12CC3CC1(C)CC3(CN1CCCCC1)C2`, the result was inactive.
The result for `CN(C)C12CC3CC(CC1C3)C2` reads “inactive”; that for `CNCC12CC3CC(CC1C3)C2`, “inactive”.
The result for `CN(Cc1ccccc1)CC12CC3(C)CC1CC3(C)C2` reads “inactive”; that for `c1ccc(CNCC23CC4CC(CC2C4)C3)cc1`, “inactive”; that for `CN(Cc1ccccc1)CC12CC3CC(CC1C3)C2`, “inactive”.
The result for `c1ccc(CNC23CC4CC(CC2C4)C3)cc1` reads “inactive”.
Regarding `NCC12CC3CC(CC1C3)C2`, the outcome was inactive.
As to `CN(C)CC12CC3CC(CC1C3)C2`, the outcome was inactive.
Then `CNC12CC3CC(CC1C3)C2`, with “inactive”; and `CC12CC3CC1(C)CC3(NCc1cccs1)C2`, with “inactive”; and `CNCC12CC3(C)CC1CC3(C)C2`, with “inactive”.
Turning to `N=C(N)NCC12CC3CC(CC1C3)C2`, the outcome was inactive.
As for `C1CCN(C23CC4CC(CC2C4)C3)CC1`, the result was inactive.
Then `CC12CC3CC1(C)CC3(CNC(=N)N)C2`, with “inactive”.
Consider `CN(Cc1ccccc1)C12CC3CC(CC1C3)C2`, for which the outcome was inactive.
The result for `CC12CC3CC1(C)CC3(CNCc1ccccc1)C2` reads “inactive”; that for `COc1ccc(CNC23CC4CC(CC2C4)C3)cc1`, “inactive”.
For the compound `COc1cccc(CNC23CC4CC(CC2C4)C3)c1`, the result was inactive.
Regarding `CC12CC3CC1(C)CC3(N)C2`, the outcome was inactive.
The result for `CC12CC3CC1(C)CC3(CN)C2` reads “inactive”; that for `CN(C)CC12CC3(C)CC1CC3(C)C2`, “inactive”; that for `CC12CC3CC1(C)CC3(N(Cc1ccccc1)Cc1ccccc1)C2`, “inactive”.
